Read-outs that look alike come from different tables or passages of the source.
What was measured:
[1] = system: G93A SOD1 B6SJL hybrid (G93A) model; experiment: Disease progression score (JAX SOP) in G93A SOD1 transgenic mice
From the text: The disease progression score is based on the JAX SOP (Ludolph A C, Bendotti C, Blaugrund E, Hengerer B, Loffler J P, Martin J, Meininger V, Meyer T, Moussaoui S, Robberecht W, Scott S, Silani V, Van Den Berg L H (ENMC Group For The Establishment Of Guidelines For The Conduct Of Preclinical And Proof Of Concept Studies In ALS/MND Models). 2007, which is incorporated by reference).

[2] = system: G93A SOD1 B6SJL hybrid (G93A) model; details: for Heart / gastrocnemius: end of study;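 as to HR survival (FIG. 14): dosing began after ALS onset in G93A SOD1 mice, with survival as the endpoint, defined humanely as the animal failing to regain upright posture within 30 s when placed sideways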;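 as to HR survival (FIG. 16): dosing began after ALS onset in G93A SOD1 mice, with survival as the endpoint, defined humanely as the animal failing to regain upright posture within 30 s when placed sideways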
Description: (§1) Transgenic mice over-expressing a high copy number (25 copies) of mutated human SOD1 gene with a G93A point mutation, i.e., B6SJL-TgN [SOD1-G93A]1 Gur (G1H-G93A transgenic mice, JR2726; Hemizygote) (Gurney M E, et al., Science, 264, 1772-1775, 1994) (“G93A SOD1 B6SJL hybrid (G93A) model”), were used.
To study the effect of the test compounds on skeletal muscle atrophy, the skeletal muscle mass were determined at the end of the study.
The number of all mice in the population is indicated as “n” in at the bottom of FIGS. 21A-21C.
The number of all mice in the population is indicated as “n” in at the bottom of FIGS. 20D-20F.
The number of all mice in the population is indicated as “n” in at the bottom of FIGS. 21G-21I.

[3] = system: G93A SOD1 B6SJL hybrid (G93A) model; experiment: Body weight and body composition (lean mass, fat mass; NMR scans) in G93A SOD1 transgenic mice; format: in vivo; details: for Average Δ body weight / Average Δ fat mass / Average Δ lean mass: per day alive after disease onset
From the text: as §1
[…] […] There were 16 mice in the S-oxprenolol group.
The primary endpoint was survival, humanely defined as the ability of the animal to right itself in 30 seconds after being laid on its side. Secondary endpoints were body weight, body composition, spontaneous activity and food intake. Body weight of the animals was assessed weekly until onset of disease. Additionally, body composition (fat mass and lean body mass) was assessed using NMR scans (EchoMRI-100, Echo Medical Systems, Houston, USA) every 4 days. After onset of disease, body weight and body composition were assessed every two days until the end of the study. All personal handling the animals was strictly blinded to the randomized treatment allocation.
To study the effect of S-oxprenolol on body weight, body weight was monitored over time.
To study the effect of the test compounds on lean body mass, lean mass was determined at the end of the study.
To study the effect of the test compounds on fat mass, the fat mass were determined at the end of the study.
To study the effect of S-oxprenolol on body weight, body weight was monitored over time. […] The number of all mice in the population is indicated as “n” in at the bottom of FIGS. 20A-20C.
To study the effect of the test compounds on lean body mass, lean mass was determined at the end of the study. […] The number of all mice in the population is indicated as “n” in at the bottom of FIGS. 20D-20F.
To study the effect of the test compounds on fat mass, the fat mass were determined at the end of the study. […] The number of all mice in the population is indicated as “n” in at the bottom of FIGS. 20G-20I.

[4] = system: G93A SOD1 B6SJL hybrid (G93A) model; details: for HR survival (FIG. 14): all mice; for HR survival (FIG. 16): female mice; for HR survival (FIG. 15): male mice;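 as to HR survival (FIG. 14): dosing began after ALS onset in G93A SOD1 mice, with survival as the endpoint, defined humanely as the animal failing to regain upright posture within 30 s when placed sideways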;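 as to HR survival (FIG. 16): dosing began after ALS onset in G93A SOD1 mice, with survival as the endpoint, defined humanely as the animal failing to regain upright posture within 30 s when placed sideways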
[5] = 20 mg/kg/day vs. S-Oxprenolol (20)

Structure (SMILES): C=CCOc1ccccc1OC[C@H](O)CNC(C)C [R-oxprenolol, (R)-1-(2-(allyloxy)phenoxy)-3-(isopropylamino)propan-2-ol]
- HR Progression from score 1 to score 2 (FIG. 17) ([1]; 10 mg/kg/day vs. placebo): 0.47
- HR Progression from score 1 to score 3 (FIG. 19) ([1]; 10 mg/kg/day vs. placebo): 0.60
- HR Progression from score 2 to score 3 (FIG. 18) ([1]; 10 mg/kg/day vs. placebo): 1.04
- HR Progression from score 1 to score 2 (FIG. 17) ([1]; 20 mg/kg/day vs. placebo): 0.54
- HR Progression from score 1 to score 3 (FIG. 19) ([1]; 20 mg/kg/day vs. placebo): 0.63
- HR Progression from score 2 to score 3 (FIG. 18) ([1]; 20 mg/kg/day vs. placebo): 0.74
- BAT (brown adipose tissue) ([2]; all mice, 10 mg/kg/d): 44.5 ± 3.4 mg
- EDL (extensor digitorum longus) ([2]; all mice, 10 mg/kg/d): 6.53 ± 0.47 mg
- soleus ([2]; all mice, 10 mg/kg/d): 4.49 ± 0.36 mg
- Heart ([2]; all mice, 10 mg/kg/d): 101.2 ± 2.7 mg
- gastrocnemius ([2]; all mice, 10 mg/kg/d): 50.8 ± 3.3 mg
- BAT (brown adipose tissue) ([2]; all mice, 20 mg/kg/d): 43.3 ± 4.1 mg
- EDL (extensor digitorum longus) ([2]; all mice, 20 mg/kg/d): 5.89 ± 0.31 mg
- soleus ([2]; all mice, 20 mg/kg/d): 5.49 ± 0.34 mg
- Heart ([2]; all mice, 20 mg/kg/d): 100.7 ± 3.8 mg
- gastrocnemius ([2]; all mice, 20 mg/kg/d): 47.0 ± 2.6 mg
- BAT (brown adipose tissue) ([2]; female mice, 10 mg/kg/d): 42.1 ± 4.6 mg
- EDL (extensor digitorum longus) ([2]; female mice, 10 mg/kg/d): 6.45 ± 0.75 mg
- soleus ([2]; female mice, 10 mg/kg/d): 4.23 ± 0.51 mg
- Heart ([2]; female mice, 10 mg/kg/d): 94.4 ± 3.4 mg
- gastrocnemius ([2]; female mice, 10 mg/kg/d): 47.5 ± 4.1 mg
- BAT (brown adipose tissue) ([2]; female mice, 20 mg/kg/d): 32.6 ± 1.9 mg
- EDL (extensor digitorum longus) ([2]; female mice, 20 mg/kg/d): 5.98 ± 0.47 mg
- soleus ([2]; female mice, 20 mg/kg/d): 5.09 ± 0.52 mg
- Heart ([2]; female mice, 20 mg/kg/d): 88.5 ± 4.6 mg
- gastrocnemius ([2]; female mice, 20 mg/kg/d): 43.6 ± 4.2 mg
- BAT (brown adipose tissue) ([2]; male mice, 10 mg/kg/d): 46.7 ± 4.9 mg
- EDL (extensor digitorum longus) ([2]; male mice, 10 mg/kg/d): 6.59 ± 0.61 mg
- soleus ([2]; male mice, 10 mg/kg/d): 4.74 ± 0.51 mg
- Heart ([2]; male mice, 10 mg/kg/d): 107.4 ± 3.4 mg
- gastrocnemius ([2]; male mice, 10 mg/kg/d): 53.8 ± 5.1 mg
- BAT (brown adipose tissue) ([2]; male mice, 20 mg/kg/d): 53.9 ± 6.8 mg
- EDL (extensor digitorum longus) ([2]; male mice, 20 mg/kg/d): 5.81 ± 0.42 mg
- soleus ([2]; male mice, 20 mg/kg/d): 5.84 ± 0.45 mg
- Heart ([2]; male mice, 20 mg/kg/d): 112.0 ± 4.1 mg
- gastrocnemius ([2]; male mice, 20 mg/kg/d): 49.9 ± 3.0 mg
- Δ body weight ([3]; all mice, 10 mg/kg/d): -6.36 ± 0.39 g
- Δ fat mass ([3]; all mice, 10 mg/kg/d): -1.71 ± 0.15 g
- Δ lean mass ([3]; all mice, 10 mg/kg/d): -5.11 ± 0.32 g
- Average Δ body weight ([3]; all mice, 10 mg/kg/d): -146.1 ± 11.1 mg/day
- Average Δ fat mass ([3]; all mice, 10 mg/kg/d): -38.3 ± 4.2 mg/day
- Average Δ lean mass ([3]; all mice, 10 mg/kg/d): -125.8 ± -12.7 mg/day
- Δ body weight ([3]; all mice, 20 mg/kg/d): -5.21 ± 0.39 g
- Δ fat mass ([3]; all mice, 20 mg/kg/d): -1.59 ± 0.15 g
- Δ lean mass ([3]; all mice, 20 mg/kg/d): -4.60 ± 0.28 g
- Average Δ body weight ([3]; all mice, 20 mg/kg/d): -111.0 ± 9.4 mg/day
- Average Δ fat mass ([3]; all mice, 20 mg/kg/d): -32.6 ± 3.0 mg/day
- Average Δ lean mass ([3]; all mice, 20 mg/kg/d): -96.6 ± 6.4 mg/day
- Δ body weight ([3]; female mice, 10 mg/kg/d): -6.19 ± 0.42 g
- Δ fat mass ([3]; female mice, 10 mg/kg/d): -1.87 ± 0.22 g
- Δ lean mass ([3]; female mice, 10 mg/kg/d): -3.76 ± 0.41 g
- Average Δ body weight ([3]; female mice, 10 mg/kg/d): -137.4 ± 15.5 mg/day
- Average Δ fat mass ([3]; female mice, 10 mg/kg/d): -41.4 ± 5.3 mg/day
- Average Δ lean mass ([3]; female mice, 10 mg/kg/d): -121.3 ± 25.7 mg/day
- Δ body weight ([3]; female mice, 20 mg/kg/d): -4.85 ± 0.55 g
- Δ fat mass ([3]; female mice, 20 mg/kg/d): -1.71 ± 0.26 g
- Δ lean mass ([3]; female mice, 20 mg/kg/d): -4.55 ± 0.37 g
- Average Δ body weight ([3]; female mice, 20 mg/kg/d): -105.2 ± 13.1 mg/day
- Average Δ fat mass ([3]; female mice, 20 mg/kg/d): -35.6 ± 5.0 mg/day
- Average Δ lean mass ([3]; female mice, 20 mg/kg/d): -85.2 ± 9.1 mg/day
- Δ body weight ([3]; male mice, 10 mg/kg/d): -6.515 ± 0.65 g
- Δ fat mass ([3]; male mice, 10 mg/kg/d): -1.57 ± 0.21 g
- Δ lean mass ([3]; male mice, 10 mg/kg/d): -5.55 ± 0.47 g
- Average Δ body weight ([3]; male mice, 10 mg/kg/d): -153.5 ± 16.1 mg/day
- Average Δ fat mass ([3]; male mice, 10 mg/kg/d): -37.4 ± 6.4 mg/day
- Average Δ lean mass ([3]; male mice, 10 mg/kg/d): -129.7 ± 9.9 mg/day
- Δ body weight ([3]; male mice, 20 mg/kg/d): -5.53 ± 0.57 g
- Δ fat mass ([3]; male mice, 20 mg/kg/d): -1.48 ± 0.16 g
- Δ lean mass ([3]; male mice, 20 mg/kg/d): -5.12 ± 0.38 g
- Average Δ body weight ([3]; male mice, 20 mg/kg/d): -116.0 ± 13.7 mg/day
- Average Δ fat mass ([3]; male mice, 20 mg/kg/d): -29.9 ± 3.5 mg/day
- Average Δ lean mass ([3]; male mice, 20 mg/kg/d): -106.4 ± 8.5 mg/day
- HR survival (FIG. 14) ([4]; 10 mg/kg/day vs. placebo): 0.57
- HR survival (FIG. 14) [4, 5]: 1.32
- HR survival (FIG. 14) ([4]; 20 mg/kg/day vs. placebo): 0.54
- HR survival (FIG. 16) ([4]; 10 mg/kg/day vs. placebo): 0.60
- HR survival (FIG. 16) [4, 5]: 1.26
- HR survival (FIG. 16) ([4]; 20 mg/kg/day vs. placebo): 0.41
- HR survival (FIG. 15) ([4]; 10 mg/kg/day vs. placebo): 0.49
- HR survival (FIG. 15) [4, 5]: 1.24
- HR survival (FIG. 15) ([4]; 20 mg/kg/day vs. placebo): 0.41

Structure (SMILES): CC(C)NCC(O)COc1cccc2ccccc12 (centres unmarked) [propanolol]
- HR Progression from score 1 to score 2 (FIG. 17) ([1]; 10 mg/kg/day vs. placebo): 0.64
- HR Progression from score 1 to score 3 (FIG. 19) ([1]; 10 mg/kg/day vs. placebo): 0.72
- HR Progression from score 2 to score 3 (FIG. 18) ([1]; 10 mg/kg/day vs. placebo): 0.99
- BAT (brown adipose tissue) ([2]; all mice, 10 mg/kg/d): 45.1 ± 2.9 mg
- EDL (extensor digitorum longus) ([2]; all mice, 10 mg/kg/d): 7.11 ± 0.37 mg
- soleus ([2]; all mice, 10 mg/kg/d): 5.60 ± 0.28 mg
- Heart ([2]; all mice, 10 mg/kg/d): 104.0 ± 3.2 mg
- gastrocnemius ([2]; all mice, 10 mg/kg/d): 52.4 ± 3.3 mg
- BAT (brown adipose tissue) ([2]; female mice, 10 mg/kg/d): 41.2 ± 2.2 mg
- EDL (extensor digitorum longus) ([2]; female mice, 10 mg/kg/d): 6.21 ± 0.37 mg
- soleus ([2]; female mice, 10 mg/kg/d): 5.57 ± 0.43 mg
- Heart ([2]; female mice, 10 mg/kg/d): 93.8 ± 2.7 mg
- gastrocnemius ([2]; female mice, 10 mg/kg/d): 40.6 ± 3.3 mg
- BAT (brown adipose tissue) ([2]; male mice, 10 mg/kg/d): 48.7 ± 5.1 mg
- EDL (extensor digitorum longus) ([2]; male mice, 10 mg/kg/d): 7.94 ± 0.55 mg
- soleus ([2]; male mice, 10 mg/kg/d): 5.63 ± 0.38 mg
- Heart ([2]; male mice, 10 mg/kg/d): 113.5 ± 4.6 mg
- gastrocnemius ([2]; male mice, 10 mg/kg/d): 63.3 ± 3.6 mg
- Δ body weight ([3]; all mice, 10 mg/kg/d): -5.89 ± 0.42 g
- Δ fat mass ([3]; all mice, 10 mg/kg/d): -1.82 ± 0.25 g
- Δ lean mass ([3]; all mice, 10 mg/kg/d): -4.89 ± -0.26 g
- Average Δ body weight ([3]; all mice, 10 mg/kg/d): -127.6 ± 10.6 mg/day
- Average Δ fat mass ([3]; all mice, 10 mg/kg/d): -43.9 ± 5.5 mg/day
- Δ body weight ([3]; female mice, 10 mg/kg/d): -5.66 ± 0.66 g
- Δ fat mass ([3]; female mice, 10 mg/kg/d): -1.65 ± 0.44 g
- Δ lean mass ([3]; female mice, 10 mg/kg/d): -4.70 ± 0.37 g
- Average Δ body weight ([3]; female mice, 10 mg/kg/d): -111.3 ± 13.2 mg/day
- Average Δ fat mass ([3]; female mice, 10 mg/kg/d): -30.9 ± 8.3 mg/day
- Average Δ lean mass ([3]; female mice, 10 mg/kg/d): -91.2 ± 8.3 mg/day
- Δ body weight ([3]; male mice, 10 mg/kg/d): -6.11 ± 0.54 g
- Δ fat mass ([3]; male mice, 10 mg/kg/d): -1.99 ± 0.26 g
- Δ lean mass ([3]; male mice, 10 mg/kg/d): -5.06 ± 0.37 g
- Average Δ body weight ([3]; male mice, 10 mg/kg/d): -142.7 ± 15.9 mg/day
- Average Δ fat mass ([3]; male mice, 10 mg/kg/d): -51.9 ± 6.9 mg/day
- Average Δ lean mass ([3]; male mice, 10 mg/kg/d): -118.6 ± 10.6 mg/day
- HR survival (FIG. 14) ([4]; 10 mg/kg/day vs. placebo): 0.73
- HR survival (FIG. 16) ([4]; 10 mg/kg/day vs. placebo): 0.71
- HR survival (FIG. 15) ([4]; 10 mg/kg/day vs. placebo): 0.59
